In patent US8916712B2, “Compositions and methods for cytoprotection” (Board of Trustees of the University of Arkansas, priority 2007, dated 2014):

Columns and labels:
[1] = tested on: FRTL-5 thyroid cells; assay: Radiation-induced thyroid cell death (450 Gy), LDH release assay or Comet assay; type: cell-based; details: added after radiation, 24 hr
Description: FRTL-5 thyroid cells (ATCC, catalog #CRL8305) were irradiated with 450 Gy without or with Zn^2+-chelates added before and/or after irradiation. […] In another experiment, Zn^2+-chelates (i.e., Zn-captopril, Zn-NAC, Zn-penicillamine, or Zn-PTCA) were added to human U937 cells either 30 minutes before, immediately after, or up to 4 hours after irradiation (4 Gy).

[2] = tested on: white pulp splenocytes; assay: Total body irradiation of mice (8 Gy), TUNEL-positive white pulp splenocytes; type: in vivo, mouse
Description: Mice were exposed to total body irradiation and the radioprotective effects of Zn^+-chelates administered before or after the irradiation were examined. Each unanesthetized mouse was placed temporarily in a well ventilated plexiglass restrainer and exposed to total body irradiation from a cesium irradiator. A dose of 8 Gy was chosen on the basis of previous studies utilizing male CD-1 mice (Bichay et al., 1986, supra). A total of 6-10 animals per group were used. The animals were allowed to survive for 36 hr after irradiation.
To test for radioprotective effects, Zn-DIPS was injected subcutaneously twice a day 15 mg/kg each time (i.e., 30 mg/kg/day). One group of animals (“before”) received Zn-DIPS starting 2 days before irradiation and continued until 36 hr after irradiation. Another group (“after”) was injected with Zn-DIPS about 30 min […] irradiation and continued until euthanasia. “Vehicle” control animals were injected with vehicle (i.e., saline) for the duration of the experiment, and irradiated with the same dose.
FIG. 12 presents the number of TUNEL-positive cells in white pulp splenocytes from the different groups.

[3] = target: T1, recombinant human DNase I (Homo sapiens, UniProt P24855); assay: Plasmid incision assay of endonuclease activity, recombinant DNase I; type: biochemical
T1 construct: Recombinant DNase I was produced using a similar approach; made in house
T1 sequence (P24855 23-282): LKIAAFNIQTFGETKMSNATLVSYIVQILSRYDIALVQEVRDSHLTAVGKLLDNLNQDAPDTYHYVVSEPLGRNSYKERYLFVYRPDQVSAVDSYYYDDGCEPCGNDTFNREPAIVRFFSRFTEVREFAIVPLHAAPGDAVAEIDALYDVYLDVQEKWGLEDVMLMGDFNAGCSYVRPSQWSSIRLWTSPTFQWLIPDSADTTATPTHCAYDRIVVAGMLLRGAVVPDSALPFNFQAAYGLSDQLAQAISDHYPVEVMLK
Description: It was hypothesized that Zn^2+-chelates of aminothiols could provide radioprotection via their direct inhibition of nucleases and their antioxidant properties (i.e., prevent nuclease induction and release). To test this hypothesis, the activity of Zn(II) chelates to inhibit nucleases was assayed in vitro. For this, DNase I and EndoG were cloned, recombinant nuclease were expressed and purified for the in vitro assay. Human and mouse mature EndoG cDNA was reverse transcribed by RT-PCR from either normal human breast epithelial HMEC cells (Clonetics, Walkersville, Md.) or immortalized mouse proximal tubule epithelial TKPTS cells (obtained from D. Elsa Bello-Reuss, University of Texas Medical Branch, Galveston). The plasmid for mature human EndoG (A49-K297) with a C-terminal histidine tag and mouse mature EndoG (A45-K294) with a C-terminal histidine tag were constructed by inserting coding cDNA into pET29b(+) (Novagen, San Diego, Calif.) and expressed in Escherichia coli BL21 (DE3) cells using standard procedures. Expression of the recombinant proteins was induced by IPTG. The expressed recombinant protein was purified by HisTrap FF crude Kit (GE Healthcare, Uppsala, Sweden) and stored in 20 mM Tris-HCl, ph 7.5, 0.5 M NaCl, 2 mM 2-mercaptoethanol, and 50% glycerol.
(§1) Endonuclease activity was measured using a plasmid incision assay. Activity was measured in 20 μl samples containing 1 μg pBR322 plasmid DNA, 10 mM Tris-HCl, pH 7.7, 25 μg/ml bovine serum albumin V fraction, 0.5 mM dithiothreitol, 5 mM MgCl2, 2 mM CaCl2, and 2 μl endonuclease. After 1 hour incubation at 37° C., the reaction was stopped by the addition 5 μl 1% SDS, 100 mM EDTA. Digested DNA was then subjected to a 1% agarose gel electrophoresis at 7 V/cm for 1 hour at room temperature. The gel was stained in 0.5 μg/ml ethidium bromide solution for 20 minutes and photographed under […]. Scanning densitometer Fotodyne (Fotodyne Inc., Hartland, Wis.) was utilized to quantify the relative amount of endonuclease-treated plasmid DNA present in a covalently closed circular DNA (cccDNA), open circular DNA (ocDNA) or linear DNA (linDNA). One endonuclease unit was defined as the amount of enzyme required to convert 1 μg cccDNA to ocDNA and linDNA.
(§2) Recombinant DNase I and rat serum DNase (which is predominantly rat DNase I) were incubated with 0, 100, or 200 μM of a Zn^2+-chelate (i.e., Zn-3,5-diisopropylsalicylic acid (DIPS), Zn-gluconate, or Zn-glycinate), a ligand (i.e., DIPS, gluconic acid, or glycine, as negative controls), or ZnCl2 (as positive control).

[4] = target: T2, rat serum DNase (predominantly rat DNase I) (Rattus norvegicus, UniProt P21704); assay: Plasmid incision assay of endonuclease activity, rat serum DNase; type: biochemical; details: 0, 100 or 200 μM; 1 hour at 37° C.; pBR322 plasmid DNA
T2 construct: rat serum DNase (which is predominantly rat DNase I); from tissue; host or cells: rat serum
T2 sequence (P21704 23-284): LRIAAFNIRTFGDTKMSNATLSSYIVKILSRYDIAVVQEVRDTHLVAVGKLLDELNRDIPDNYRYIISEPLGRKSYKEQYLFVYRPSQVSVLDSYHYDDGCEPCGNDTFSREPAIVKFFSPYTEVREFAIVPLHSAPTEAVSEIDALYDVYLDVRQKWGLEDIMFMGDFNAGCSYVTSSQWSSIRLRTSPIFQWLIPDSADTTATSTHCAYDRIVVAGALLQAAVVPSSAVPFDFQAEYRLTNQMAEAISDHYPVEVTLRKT
Description: as §1, §2

Inhibition of DNase I activity ([3]; 0, 100 or 200 μM, 1 hour at 37° C., pBR322 plasmid DNA): inhibited | Ranking of nuclease inhibition among the Zn^2+-chelates tested ([3]; DNase I and serum DNase, FIG. 5): best inhibition | Inhibition of serum DNase activity [4]: inhibited
Substance: Zn-3,5-diisopropylsalicylic acid [Zn-DIPS]
Protection from radiation-induced thyroid cell death [1]: provided protection | Radioprotection (TUNEL-positive white pulp splenocytes), administered before irradiation ([2]; 15 mg/kg s.c. twice a day from 2 days before until 36 hr after irradiation): partial radioprotection | Radioprotection (TUNEL-positive white pulp splenocytes), administered after irradiation ([2]; 15 mg/kg s.c. twice a day, "after" group): partial radioprotection | Protection of spleen compared with inactivation of DNase I ([2]; versus DNase I knock-out mice): better protection
